Laboratory results taken from article PMC6934184, “Selective DNA-PKcs inhibition extends the therapeutic index of localized radiotherapy and chemotherapy” (The Journal of Clinical Investigation, 2019).

Target: T1, RET G691S (Homo sapiens, UniProt P07949, G691S)
T1 construct: purchased Thermo Fisher Scientific (Life Technologies) SelectScreen
Experiment: SelectScreen LanthaScreen
Format: binding
Conditions: read-out: % displacement
Procedure, shortened: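 SelectScreen broad panel; activity (Z'LYTE, Adapta) plus binding formats. ATP: Km app for CSF1R Z'LYTE; 10 for CAMK1 Adapta. Readout = % per kinase.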

T1 sequence (P07949 29-1114 G691S): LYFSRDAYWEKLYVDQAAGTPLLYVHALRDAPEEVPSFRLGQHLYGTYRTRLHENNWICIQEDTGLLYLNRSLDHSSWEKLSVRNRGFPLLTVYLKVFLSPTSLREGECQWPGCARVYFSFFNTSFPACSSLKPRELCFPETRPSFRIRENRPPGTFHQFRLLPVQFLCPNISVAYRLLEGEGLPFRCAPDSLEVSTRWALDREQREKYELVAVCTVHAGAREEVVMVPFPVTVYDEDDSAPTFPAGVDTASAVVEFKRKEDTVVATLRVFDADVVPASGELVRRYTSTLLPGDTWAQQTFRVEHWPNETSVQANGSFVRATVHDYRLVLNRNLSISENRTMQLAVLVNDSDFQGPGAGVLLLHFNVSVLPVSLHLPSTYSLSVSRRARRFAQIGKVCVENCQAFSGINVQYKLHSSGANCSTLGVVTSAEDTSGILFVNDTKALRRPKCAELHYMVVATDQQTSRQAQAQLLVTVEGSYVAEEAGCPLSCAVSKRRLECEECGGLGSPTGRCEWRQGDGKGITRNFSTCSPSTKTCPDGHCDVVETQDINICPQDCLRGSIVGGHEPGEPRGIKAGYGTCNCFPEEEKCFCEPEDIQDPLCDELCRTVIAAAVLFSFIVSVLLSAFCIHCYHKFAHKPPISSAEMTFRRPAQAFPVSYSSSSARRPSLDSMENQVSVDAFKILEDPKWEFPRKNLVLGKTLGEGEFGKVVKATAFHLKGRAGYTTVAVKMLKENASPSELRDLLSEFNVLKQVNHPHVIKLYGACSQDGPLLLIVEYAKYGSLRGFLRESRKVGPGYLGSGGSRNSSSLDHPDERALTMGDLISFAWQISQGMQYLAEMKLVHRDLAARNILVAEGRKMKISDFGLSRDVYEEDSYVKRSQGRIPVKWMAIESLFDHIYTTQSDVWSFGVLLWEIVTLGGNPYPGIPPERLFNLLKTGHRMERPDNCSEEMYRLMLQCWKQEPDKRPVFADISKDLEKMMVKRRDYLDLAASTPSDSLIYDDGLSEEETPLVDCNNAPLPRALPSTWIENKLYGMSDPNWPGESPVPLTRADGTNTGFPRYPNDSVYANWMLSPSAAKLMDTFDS

## CN(C(=O)CN1CCOCC1)c1ccc2sc3c(-c4cccc5c(=O)cc(N6CC7CCC(C6)O7)oc45)cccc3c2c1 [NU5455]
  inhibition at 1 µM: -1.8%
